As a reminder, the pKi is the Ki on a negative log10 scale, so that one unit is a factor of ten. Higher therefore signals a small Ki.

pKi: −log10 of the molar value.

For the experiment, the target named is L-lactate dehydrogenase (Plasmodium falciparum) (UniProt Q27743). Description: inhibitory activity against Plasmodium falciparum LDH (pLDH).

As to `Cc1cc2c(C)c(O)c(O)c(C(=O)O)c2cc1C` [2,3-Dihydroxy-4,6,7-trimethyl-naphthalene-1-carboxylic acid], the pKi was 4.89.
To `Cc1ccc2c(C(=O)O)c(O)c(O)c(C)c2c1` [2,3-Dihydroxy-4,6-dimethyl-naphthalene-1-carboxylic acid] belongs 4.66; to `Cc1cc2c(C(=O)O)c(O)c(O)c(C(C)C)c2cc1C` [2,3-Dihydroxy-4-isopropyl-6,7-dimethyl-naphthalene-1-carboxylic acid], 6.00; to `Cc1cc2c(C(C)C)c(O)c(O)c(C(=O)O)c2cc1Cc1ccc(C(F)(F)F)cc1` [2,3-Dihydroxy-4-isopropyl-6-methyl-7-(4-trifluoromethyl-benzyl)-naphthalene-1-carboxylic acid], 6.70.
As for `Cc1ccc2c(C(=O)O)c(O)c(O)c(C(C)C)c2c1` [2,3-Dihydroxy-4-isopropyl-6-methyl-naphthalene-1-carboxylic acid], the figure is 5.70.
For `CCCc1c(O)c(O)c(C(=O)O)c2ccc(C)cc12` [2,3-Dihydroxy-6-methyl-4-propyl-naphthalene-1-carboxylic acid], the pKi is 5.22.
As for `Cc1cc2c(C)c(O)c(O)c(C(=O)O)c2cc1Cc1ccccc1` [7-Benzyl-2,3-dihydroxy-4,6-dimethyl-naphthalene-1-carboxylic acid], the figure is 5.10; as for `Cc1cc2c(C(C)C)c(O)c(O)c(C(=O)O)c2cc1Cc1ccccc1` [7-Benzyl-2,3-dihydroxy-4-isopropyl-6-methyl-naphthalene-1-carboxylic acid], 6.15.

(Values after BindingDB's records for doi:10.1021/jm980334n (University of New Mexico School of Medicine, 1998).)
